Assay results from ChEMBL document CHEMBL5223109, “The discovery of BMS-737 as a potent, CYP17 lyase-selective inhibitor for the treatment of castration-resistant prostate cancer” (Bioorg Med Chem Lett, 2022).

Assays:
[1] = molecular target: T1, Steroid 17-alpha-hydroxylase/17,20 lyase (Homo sapiens, UniProt P05093); assay: Inhibition of human CYP17A1; type: ADME
T1 sequence (P05093 whole entry): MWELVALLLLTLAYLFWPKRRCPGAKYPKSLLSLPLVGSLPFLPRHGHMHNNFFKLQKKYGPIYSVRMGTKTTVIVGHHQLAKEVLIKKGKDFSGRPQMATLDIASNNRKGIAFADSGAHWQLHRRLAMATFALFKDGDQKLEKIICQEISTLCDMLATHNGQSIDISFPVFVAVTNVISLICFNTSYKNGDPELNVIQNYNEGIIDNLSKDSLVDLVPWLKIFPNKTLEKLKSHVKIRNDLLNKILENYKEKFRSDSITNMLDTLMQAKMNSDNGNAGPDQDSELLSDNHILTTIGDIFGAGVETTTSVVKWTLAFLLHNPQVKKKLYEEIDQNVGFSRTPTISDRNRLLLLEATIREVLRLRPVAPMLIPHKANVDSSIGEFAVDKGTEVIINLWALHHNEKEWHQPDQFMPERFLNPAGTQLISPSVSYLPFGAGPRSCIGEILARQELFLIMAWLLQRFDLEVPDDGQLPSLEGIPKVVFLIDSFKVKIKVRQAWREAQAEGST

Cytochrome P450 1A2 = molecular target: T2, Cytochrome P450 1A2 (Homo sapiens, UniProt P05177); assay: Inhibition of CYP1A2 (unknown origin); type: ADME
T2 sequence (P05177 whole entry): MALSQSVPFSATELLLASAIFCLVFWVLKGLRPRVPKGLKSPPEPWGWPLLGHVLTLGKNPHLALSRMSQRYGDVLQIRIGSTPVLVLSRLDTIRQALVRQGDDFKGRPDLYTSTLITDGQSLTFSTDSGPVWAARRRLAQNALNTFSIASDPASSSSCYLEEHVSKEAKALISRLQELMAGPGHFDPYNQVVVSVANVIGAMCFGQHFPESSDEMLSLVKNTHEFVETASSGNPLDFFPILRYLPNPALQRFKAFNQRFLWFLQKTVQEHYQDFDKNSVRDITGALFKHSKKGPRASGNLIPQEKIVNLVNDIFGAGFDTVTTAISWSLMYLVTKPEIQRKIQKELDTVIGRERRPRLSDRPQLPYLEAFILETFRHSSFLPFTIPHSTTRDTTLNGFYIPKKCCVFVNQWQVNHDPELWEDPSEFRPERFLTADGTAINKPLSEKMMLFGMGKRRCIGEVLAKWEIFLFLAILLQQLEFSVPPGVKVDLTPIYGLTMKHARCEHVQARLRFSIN

[2] = Metabolic stability in human liver microsomes assessed as parent compound remaining relative to control; type: ADME, Microsome; further: time not given here
[3] = Metabolic stability in rat liver microsomes assessed as parent compound remaining; type: ADME, Microsome; further: time not given here
[4] = Metabolic stability in mouse liver microsomes assessed as parent compound remaining; type: ADME, Microsome; further: time not given here
[5] = molecular target: T1, Steroid 17-alpha-hydroxylase/17,20 lyase; assay: Selectivity ratio for inhibition of human CYP17A1 hydroxylase activity to inhibition of human CYP17A1 lyase activity; type: ADME

IC50 [1] [nM] | IC50 (Cytochrome P450 1A2) [nM] | Stability [2] [%] | Stability [3] [%] | Stability [4] [%] | Structure (SMILES) | Ratio [5]
800 | 5140 |  |  |  | Cc1ccncc1-c1ccnc2c1cnn2Cc1ccc(F)cc1 | 
2 | 34 | 79 | 3 | 6 | Cc1ccncc1-c1cccc2c(-c3ccccc3)cnn12 | 
10 | 250 | 65 | 3 | 2 | Cc1ccncc1-c1ccnc2c(-c3ccccc3)csc12 | 
5 | 321 | 80 | 7 | 5 | Cc1ccncc1-c1ccnc2c(-c3ccccc3)noc12 | 
6 | 384 | 100 | 43 | 27 | Cc1ccncc1-c1ccnc2c1cnn2-c1ccc(F)cc1 | 43
14 | 4740 | 77 | 0.2 | 2 | COc1c(F)cccc1-n1ncc2c(-c3cnccc3C)ccnc21 | 7
5 | 16700 | 88 | 26 | 25 | Cc1ccncc1-c1ccnc2c1cnn2-c1ncccc1Cl | 7
 | 318 | 100 | 47 | 26 | Cc1ccncc1-c1ccnn2c(-c3ccccc3)cnc12 | 
24 | 662 | 85 | 37 | 2 | Cc1ccncc1-c1ccnc2c1cnn2-c1ccc(F)c(Cl)c1 | 10
5 | 180 | 70 | 3 | 7 | Cc1ccncc1-c1ccnn2c(-c3ccccc3)ccc12 | 
7 | 560 | 73 | 4 | 7 | Cc1ccncc1-c1ccnc2c1cnn2-c1ccccc1 | 
3 | 134 | 84 | 2 | 3 | Cc1ccncc1-c1cccc2c(-c3ccccc3)csc12 | 
3 | 1480 | 21 | 6 | 37 | COc1cccc(-n2ncc3c(-c4cnccc4C)ccnc32)c1 | 
8 | 140 | 62 | 0.8 | 2 | Cc1ccncc1-c1cccc2c1OCCN2c1ccccc1 | 
9 | 15400 | 88 | 1 | 2 | COc1ccccc1-n1ncc2c(-c3cnccc3C)ccnc21 | 
1 | 28 | 80 | 6 | 5 | Cc1ccncc1-c1cccc2c(-c3ccccc3)noc12 | 
91 | 617 | 64 | 48 | 42 | Cc1ccncc1-c1ccnc2c1cnn2-c1nccs1 | 
27 | 281 | 76 | 9 | 4 | Cc1ccncc1-c1ccnc2c1cnn2-c1cccc(F)c1 | 36
9 | 5200 | 100 | 18 | 37 | Cc1ccncc1-c1ccnc2c1cnn2-c1ccc(F)cc1F | 19

Continued, compound first:

Structure (SMILES) | IC50 [1] [nM] | IC50 (Cytochrome P450 1A2) [nM] | Stability [2] [%] | Stability [3] [%] | Stability [4] [%] | Ratio [5]
Fc1ccc(-n2ncc3c(-c4cncnc4N4CC(F)(F)C4)ccnc32)cc1 | 4 | > 40000 | 85 | 35 | 62 | 3
Fc1ccc(-n2ncc3c(-c4cncnc4C4CC4)ccnc32)cc1 | 23 | 658 | 85 | 78 | 55 | 13
Fc1ccc(-n2ncc3c(-c4cncnc4NCC(F)(F)F)ccnc32)cc1 | 8 | 4710 | 42 | 40 | 3 | 3
Nc1ncncc1-c1ccnc2c1cnn2-c1ccccn1 |  | > 40000 | 100 | 100 | 70 | 
Fc1ccc(-n2ncc3c(-c4cncn5cccc45)ccnc32)cc1 | > 1000 | 2330 | 72 | 12 | 1 | 13
Cc1ccncc1-c1ccnc2c1cnn2C | > 1000 | > 40000 |  |  |  | 
Cc1ccncc1-c1ccnc2c1cnn2-c1ccc(F)cc1Cl | 4 | 8700 | 74 | 0.9 | 14 | 3
Cc1ncncc1-c1ccnc2c1cnn2-c1ccc(F)cc1 |  | 2740 |  |  |  | 4
Fc1ccc(-n2ncc3c(-c4cncnc4C(F)(F)F)ccnc32)cc1 | 141 | 2140 | 88 | 63 | 56 | 
Cn1cncc1-c1ccnc2c1cnn2-c1ccc(F)cc1 |  | 58 | 100 | 56 | 37 | 30
Nc1ncncc1-c1ccnc2c1cnn2-c1ccc(F)cc1F | 11 | > 40000 | 98 | 100 | 92 | 6
Nc1ccncc1-c1ccnc2c1cnn2-c1ccc(F)cc1 | 5 | 26900 | 99 | 0.2 | 3 | 7
Cc1ccncc1-c1ccnc2c1cnn2C(C)(C)C | 92 | 5280 |  | 16 | 15 | 
Nc1ncncc1-c1ccnc2c1cnn2-c1c(F)cc(F)cc1F | 5 | > 40000 |  | 87 | 82 | 3
Fc1ccc(-n2ncc3c(-c4cncnc4NC4CC4)ccnc32)cc1 | 46 | 10900 | 67 | 27 | 7 | 6
COc1ccncc1-c1ccnc2c1cnn2-c1ccc(F)cc1 | 11 | 717 | 86 | 32 | 58 | 10
Fc1ccc(-n2ncc3c(-c4cccnc4)ccnc32)cc1 | 96 | 216 |  |  |  | 
Nc1ncncc1-c1ccnc2c1cnn2-c1ccc(F)cc1C(F)(F)F | 14 | > 40000 | 100 | 94 | 68 | 3
Nc1ncncc1-c1ccnc2c1cnn2-c1cccc(S(N)(=O)=O)c1 | 99 | > 40000 | 100 | 89 | 95 | 
Nc1ncncc1-c1ccnc2c1cnn2-c1ncccc1C(F)(F)F | 11 |  | 98 | 84 | 62 | 4
Cc1ccncc1-c1ccnc2c1cnn2CC(F)(F)F |  | 11200 | 92 | 30 | 41 | 12
